In US4956461A, “Desamino-aminopterin and -methotrexate” (priority 1989, dated 1990):
Like-named read-outs stand apart in the source and are kept apart here. One block for each compound: values may come before it.

Legend:
[1] = tested on: WI-L2 cells; test: Growth inhibition of cultured human WI-L2 tumor cells; type: cell-based
[2] = tested on: carboxypeptidase G1; test: Glutamate hydrolysis by carboxypeptidase G1 (HPLC); type: biochemical; conditions: for disappearance of starting material (glutamate hydrolysis): room temperature, 1M NaOAc, ZnCl2, in less than 15 min
[3] = tested on: L1210 cells; test: Reversal test: effect of thymidine and hypoxanthine on growth of L1210 cells in presence of compound; type: cell-based, murine; conditions: Mus musculus
Protocol: Thymidine (dThd) and hypoxanthine (Hx) were added at concentrations of 10 μM and 100 μM, respectively.

[4] = Stability in solution (base, pH 7.4 buffer, NH4HCO3 eluates); type: physicochemical; conditions: for time stable in pH 7.4 phosphate buffer / half-life: room temperature, pH 7.4 phosphate buffer; for half-life: read-out: t1/2 (UV changes suggestive of pyrimidine ring cleavage) (converted); for stability of 3% NH4HCO3 eluates: overnight in the refrigerator
Source text: Critically important to the successful purification of the end products of Examples 3 and 4 on diethylamino-ethylcellulose was that the fractions were freeze dried as soon as possible after collection.

[5] = tested on: L1210 cells; test: Growth inhibition of cultured murine L1210 tumor cells; type: cell-based
[6] = target: T1, dihydrofolate reductase (DHFR) (Homo sapiens, UniProt P00374); test: Inhibition of purified dihydrofolate reductase (DHFR) from human leukemic lymphoblasts (WI-L2 cells); type: biochemical
T1 construct: endogenous in cells; host or cells: MTX-resistant WI-L2 human leukemic lymphoblasts
T1 sequence (P00374 1-187): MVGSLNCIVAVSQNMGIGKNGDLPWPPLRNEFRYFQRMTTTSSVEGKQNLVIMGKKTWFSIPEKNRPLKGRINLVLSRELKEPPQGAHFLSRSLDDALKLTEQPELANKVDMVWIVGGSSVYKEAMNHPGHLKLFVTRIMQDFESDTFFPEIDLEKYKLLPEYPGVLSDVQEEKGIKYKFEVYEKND
Source text: DHFR was isolated from MTXresistant WIL2 cells and purified by affinity

[7] = tested on: DHFR, threonine residue replaced by valine; conditions: threonine to valine mutant; cited from earlier work
[8] = tested on: E. coli dihydrofolate reductase (DHFR), aspartic acid replaced with serine; conditions: cited from earlier work
[9] = WIL2, read-out: Cells IC50, WI-L2
[10] = + 10 μM thymidine and 100 μM hypoxanthine, read-out: IC50, + dThd and Hx
[11] = + 10 μM thymidine, read-out: IC50, + dThd
[12] = + 100 μM hypoxanthine, read-out: IC50, + Hx
[13] = read-out: IC50, standard medium
[14] = WIL2, read-out: IC50, growth of cultured tumor cells
[15] = Mus musculus, L1210, read-out: Cells IC50, L1210
[16] = Mus musculus, L1210, read-out: IC50, growth of cultured tumor cells

SMILES: Nc1nc(N)c2nc(CNc3ccc(C(=O)N[C@@H](CCC(=O)O)C(=O)O)cc3)cnc2n1 [AMT, aminopterin]
IC50 [1, 9]: 0.0071 µM

SMILES: CN(Cc1cnc2nc(N)nc(N)c2n1)c1ccc(C(=O)N[C@H](CCC(=O)O)C(=O)O)cc1 [D MTX, reference compound]
cleavage by carboxypeptidase G1 ([2]; identical conditions): resistant

SMILES: Nc1ncnc2ncc(CNc3ccc(C(=O)N[C@@H](CCC(=O)O)C(=O)O)cc3)nc12 [Example 1, 2-desamino-aminopterin]
IC50 [3, 10]: > 100 µM
IC50 [3, 11]: 0.16 µM
IC50 [3, 12]: 0.26 µM
IC50 [3, 13]: 0.082 µM
stability in 0.1 N NaOH by HPLC [4]: rapid appearance of new peaks indicating a chemical reaction
time stable in pH 7.4 phosphate buffer [4]: at least 24 h
half-life [4]: ~72 h
disappearance of starting material (glutamate hydrolysis) [2]: > 95%
IC50 [1, 9]: 0.081 µM
IC50 [1, 14]: 0.03 to 0.08 µM
IC50 [5, 15]: 0.082 µM
IC50 [5, 16]: 0.03 to 0.08 µM

SMILES: Cc1nc(N)c2nc(CNc3ccc(C(=O)N[C@@H](CCC(=O)O)C(=O)O)cc3)cnc2n1 [Example 2, 2-desamino-2-methyl-aminopterin]
IC50 [3, 10]: > 100 µM
IC50 [3, 11]: 0.13 µM
IC50 [3, 12]: 0.16 µM
IC50 [3, 13]: 0.042 µM
IC50 [6]: > 50 µM
stability in 0.1 N NaOH by HPLC [4]: rapid appearance of new peaks indicating a chemical reaction
time stable in pH 7.4 phosphate buffer [4]: at least 24 h
half-life [4]: ~72 h
disappearance of starting material (glutamate hydrolysis) [2]: > 95%
IC50 [1, 9]: 0.028 µM
IC50 [1, 14]: 0.03 to 0.08 µM
IC50 [5, 15]: 0.042 µM
IC50 [5, 16]: 0.03 to 0.08 µM

SMILES: CN(Cc1cnc2ncnc(N)c2n1)c1ccc(C(=O)N[C@@H](CCC(=O)O)C(=O)O)cc1 [Example 3]
IC50 [6]: 5.8 µM
stability of 3% NH4HCO3 eluates [4]: extensive decomposition occurred

IC50 ([6]; purified DHFR from MTX-resistant WI-L2 cells, read-out: DHFR IC50): > 20 µM
stability of 3% NH4HCO3 eluates [4]: extensive decomposition occurred
SMILES: Cc1nc(N)c2nc(CN(C)c3ccc(C(=O)N[C@@H](CCC(=O)O)C(=O)O)cc3)cnc2n1 [Example 4]

SMILES: CN(Cc1cnc2nc(N)nc(N)c2n1)c1ccc(C(=O)N[C@@H](CCC(=O)O)C(=O)O)cc1 [MTX, methotrexate]
decrease in the KD for MTX [7]: 25 fold
increase in the KD for MTX binding ([8]; aspartic acid to serine mutant of E. coli DHFR, equilibrium dialysis): 3000 fold
decrease in the binding energy ([8]; aspartic acid to serine mutant): 18.4 kJ/mol
IC50 ([1]; WIL2, one figure stated for WI-L2 and L1210 together, here WI-L2, read-out: IC50, growth of cultured tumor cells): 0.01 µM
IC50 [1, 9]: 0.013 µM
IC50 ([5]; Mus musculus, L1210; read-out: Cells IC50, L1210): 0.009 µM
IC50 ([5]; Mus musculus; one figure stated for WI-L2 and L1210 together; here L1210; read-out: IC50, growth of cultured tumor cells): 0.01 µM
